Experimental data taken from patent US11821892B2, “Nanobubbles” (Purdue Research Foundation, priority 2014, dated 2023).

Tests used:
VEGF = experiment: Immunohistochemistry of mouse bladder tumors, VEGF; format: in vivo; details: ex vivo mouse bladder tumor, compared to control
Protocol: (§1) Histology slides were prepared and immunohistochemistry was performed at Immunohistochemistry Laboratory at IU Health Pathology. Harvested organ tissue and bladder tumors were fixed in formalin-free IHC Zinc Fixative, embedded in paraffin, and sectioned into 5 μm slices. HIF-1 and VEGF immunohistochemistry was performed using buffered zinc formalin fixed tumor section. Blocking, antigen retrieval, and primary and secondary antibody staining were performed […]. The tissue sections were imaged using Leica DMi1 inverted microscope, and image processing was performed using ImageJ software (Research Services, National Institute of Health). Each tissue section was imaged under ×20 and ×40 magnification, composite images were converted to RGB stacks and integrated density of staining was calculated.
(§2) Angiogenesis and high density of blood vessels has been correlated with poor prognosis, metastasis, and bladder cancer invasion in clinical studies.

MB49 bladder tumor [1] = details: MMC 1 μg/mL; ONB-MMC 0.5 μg/mL MMC and 2 mg/mL ONB; intravesical
From the text: (§3) Female C57BL/6 mice were anesthetized by 1-2% isoflurane gas inhalation at 2 L/min. Electrocauterization technique was used to create a minor injury on the wall of the bladder for MB49 cells to adhere to. A 24 gauge Teflon catheter (Terumo Surflo PTFE I.V. Catheters, Fisher Scientific) was inserted into the bladder through the urethra. Minor pressure was applied onto the bladder area to release the urine from the bladder. A wire, connected to the electrocautery unit was then instilled into the bladder through the catheter. 1×10^4 MB49 cells were then instilled into the bladder; dwelling time was approximately 20 minutes to allow the cells to adhere to the injured bladder wall.
(§4) After the bubbles were injected intravesically, a pulsed wave Doppler beam was applied for five minutes and B-mode images were recorded.
(§5) The mice were imaged 48 hours after the instillation of the tumors and treatment was administered every other day based on previously established protocols.
(§6) 3D images of bladder tumor were taken every other day using the Vevo 2100 ultrasound imaging system (Fujifilm VisualSonics Inc., Toronto CA). Vevo Lab software was used to manually segment given 3D images in 2D slices, with step sizes that can be as small as 10 μm. Segmentation of a 3D image allowed accurate volume measurements to be taken from each 3D image. […]

HIF-1 = experiment: Immunohistochemistry of mouse bladder tumors, HIF-1; format: in vivo; details: ex vivo mouse bladder tumor, compared to control
Protocol: as §1, §2

MB49 cells = experiment: In vitro beam steering factorial design, MB49 cell viability; format: cell-based, mouse
MB49 bladder tumor [2] = experiment: Intravesical treatment with ultrasound beam steering in orthotopic MB49 bladder cancer mouse model; details: in vivo
From the text: as §3, §4, §5, §6

## CO[C@@]12[C@H](COC(N)=O)C3=C(C(=O)C(C)=C(N)C3=O)N1C[C@@H]1N[C@@H]12 [MMC, mitomycin-C]
VEGF
  VEGF expression (IHC): significantly lower
MB49 bladder tumor [1]
  tumor volume compared to CTRL: significant in reducing the tumor volume
HIF-1
  HIF-1 expression (IHC): significantly lower
MB49 cells; MMC 0.05-5 μg/mL, ONB 0.2-20 mg/mL
  effect on MB49 cell viability (factorial design): significant in decreasing cell viability
MB49 cells; beam ON/OFF, MMC 0.5 μg/mL and ONB 2 mg/mL at medium concentration
  effect of ultrasound beam steering on cell viability: No significant effect
MB49 bladder tumor [2]
  average mouse body weights compared to ONB-MMC groups: significantly lower
